Reference: the NIST ThermoML archive (doi:10.1021/je9002948)
Numbers after ± are expanded uncertainties.

Key:
[1] = molar heat capacity at constant pressure; wn = mass fraction of the nth substance listed; details: 101 kPa, Liquid, Small sample (50 mg) DSC
[2] = molar heat capacity at constant pressure; details: 101.33 kPa, Liquid, Small sample (50 mg) DSC

In the case of `NCC(=O)[O-].[Na+]` [sodium glycinate] + O, the “molar heat capacity at constant pressure” value ([1]; 298.15 K, w1 = 0.01) is reported as 75.2 ± 1.5 J/K/mol, the “molar heat capacity at constant pressure” value ([1]; 298.15 K, w1 = 0.05) is reported as 76.7 ± 1.5 J/K/mol and the “molar heat capacity at constant pressure” value ([1]; 298.15 K, w1 = 0.1) is reported as 77.39 ± 1.5 J/K/mol. The “molar heat capacity at constant pressure” value ([1]; 298.15 K, w1 = 0.15) was 78.81 ± 1.6 J/K/mol, the “molar heat capacity at constant pressure” value ([1]; 298.15 K, w1 = 0.2) was 78.23 ± 1.6 J/K/mol and the “molar heat capacity at constant pressure” value ([1]; 298.15 K, w1 = 0.3) was 80.84 ± 1.6 J/K/mol. For the same compound, the “molar heat capacity at constant pressure” value ([1]; 303.15 K, w1 = 0.01) was 75.21 ± 1.5 J/K/mol, the “molar heat capacity at constant pressure” value ([1]; 303.15 K, w1 = 0.05) was 76.72 ± 1.5 J/K/mol and the “molar heat capacity at constant pressure” value ([1]; 303.15 K, w1 = 0.1) was 77.41 ± 1.5 J/K/mol. The “molar heat capacity at constant pressure” value ([1]; 303.15 K, w1 = 0.15) was 78.85 ± 1.6 J/K/mol, the “molar heat capacity at constant pressure” value ([1]; 303.15 K, w1 = 0.2) was 78.79 ± 1.6 J/K/mol and the “molar heat capacity at constant pressure” value ([1]; 303.15 K, w1 = 0.3) was 81.46 ± 1.6 J/K/mol. The “molar heat capacity at constant pressure” value ([1]; 308.15 K, w1 = 0.01) was 75.25 ± 1.5 J/K/mol, the “molar heat capacity at constant pressure” value ([1]; 308.15 K, w1 = 0.05) was 76.77 ± 1.5 J/K/mol and the “molar heat capacity at constant pressure” value ([1]; 308.15 K, w1 = 0.1) was 77.47 ± 1.5 J/K/mol. The “molar heat capacity at constant pressure” value ([1]; 308.15 K, w1 = 0.15) was 78.91 ± 1.6 J/K/mol, the “molar heat capacity at constant pressure” value ([1]; 308.15 K, w1 = 0.2) was 79.45 ± 1.6 J/K/mol and the “molar heat capacity at constant pressure” value ([1]; 308.15 K, w1 = 0.3) was 82.1 ± 1.6 J/K/mol. The “molar heat capacity at constant pressure” value ([1]; 313.15 K, w1 = 0.01) was 75.32 ± 1.5 J/K/mol, the “molar heat capacity at constant pressure” value ([1]; 313.15 K, w1 = 0.05) was 76.85 ± 1.5 J/K/mol and the “molar heat capacity at constant pressure” value ([1]; 313.15 K, w1 = 0.1) was 77.53 ± 1.5 J/K/mol. For the same compound, the “molar heat capacity at constant pressure” value ([1]; 313.15 K, w1 = 0.15) was 78.99 ± 1.6 J/K/mol, the “molar heat capacity at constant pressure” value ([1]; 313.15 K, w1 = 0.2) was 80.12 ± 1.6 J/K/mol and the “molar heat capacity at constant pressure” value ([1]; 313.15 K, w1 = 0.3) was 82.75 ± 1.6 J/K/mol. The “molar heat capacity at constant pressure” value ([1]; 318.15 K, w1 = 0.01) was 75.4 ± 1.5 J/K/mol, the “molar heat capacity at constant pressure” value ([1]; 318.15 K, w1 = 0.05) was 76.92 ± 1.5 J/K/mol and the “molar heat capacity at constant pressure” value ([1]; 318.15 K, w1 = 0.1) was 77.59 ± 1.5 J/K/mol. For the same compound, the “molar heat capacity at constant pressure” value ([1]; 318.15 K, w1 = 0.15) was 79.07 ± 1.6 J/K/mol, the “molar heat capacity at constant pressure” value ([1]; 318.15 K, w1 = 0.2) was 80.77 ± 1.6 J/K/mol and the “molar heat capacity at constant pressure” value ([1]; 318.15 K, w1 = 0.3) was 83.44 ± 1.7 J/K/mol. For the same compound, the “molar heat capacity at constant pressure” value ([1]; 323.15 K, w1 = 0.01) was 75.41 ± 1.5 J/K/mol, the “molar heat capacity at constant pressure” value ([1]; 323.15 K, w1 = 0.05) was 77.05 ± 1.5 J/K/mol and the “molar heat capacity at constant pressure” value ([1]; 323.15 K, w1 = 0.1) was 77.67 ± 1.5 J/K/mol. The “molar heat capacity at constant pressure” value ([1]; 323.15 K, w1 = 0.15) was 79.2 ± 1.6 J/K/mol, the “molar heat capacity at constant pressure” value ([1]; 323.15 K, w1 = 0.2) was 81.48 ± 1.6 J/K/mol and the “molar heat capacity at constant pressure” value ([1]; 323.15 K, w1 = 0.3) was 84.11 ± 1.7 J/K/mol.

With `O` [water] the “molar heat capacity at constant pressure” value ([2]; 303.15 K) was 75.29 ± 1.5 J/K/mol, the “molar heat capacity at constant pressure” value ([2]; 308.15 K) was 75.36 ± 1.5 J/K/mol and the “molar heat capacity at constant pressure” value ([2]; 313.15 K) was 75.38 ± 1.5 J/K/mol. For the same compound, the “molar heat capacity at constant pressure” value ([2]; 318.15 K) was 75.39 ± 1.5 J/K/mol, the “molar heat capacity at constant pressure” value ([2]; 323.15 K) was 75.39 ± 1.5 J/K/mol and the “molar heat capacity at constant pressure” value ([2]; 328.15 K) was 75.39 ± 1.5 J/K/mol. The “molar heat capacity at constant pressure” value ([2]; 333.15 K) was 75.41 ± 1.5 J/K/mol, the “molar heat capacity at constant pressure” value ([2]; 338.15 K) was 75.41 ± 1.5 J/K/mol and the “molar heat capacity at constant pressure” value ([2]; 343.15 K) was 75.43 ± 1.5 J/K/mol. The “molar heat capacity at constant pressure” value ([2]; 348.15 K) was 75.45 ± 1.5 J/K/mol and the “molar heat capacity at constant pressure” value ([2]; 353.15 K) was 75.48 ± 1.5 J/K/mol.
